From article PMC3880103, “Cathepsin B/X is secreted by Echinometra lucunter sea urchin spines, a structure rich in granular cells and toxins” (The Journal of Venomous Animals and Toxins Including …, 2013) come the findings set out here.

The test system of this test is T1, cathepsin B/X (cysteine peptidase of the spine aqueous extract).
T1 construct: gene CTSB; anti-cathepsin B bands between 60 and 80 kDa
Kind of test: fluorogenic substrate hydrolysis (MCA release), non-linear regression. The format is biochemical, Echinometra lucunter. As to conditions: crude spine extract; 100 mM ammonium acetate, pH 7.4, 30°C; preincubated with 2 mM DTT. From the text: fluorogenic substrate hydrolysis (MCA release), non-linear regression on cathepsin B/X (cysteine peptidase of the spine aqueous extract)

In general, Km refers to the concentration of substrate that gives half-maximal velocity.

Consider `Cc1cc(=O)oc2cc(NC(=O)[C@H](CCCNC(=N)N)NC(=O)OCc3ccccc3)ccc12` [Z-R-MCA, carbobenzoxy-L-arginine-7-amino-4-methylcoumarin], for which the Km worked out at 147 ± 40 µM.
